In patent US10294202B2, “Pyrrolidinones as herbicides” (FMC Corporation, priority 2013, dated 2019):
Read-outs that look alike come from different tables or passages of the source.

Tests used:
[1] = test system: giant foxtail; test: Test A pre-/postemergence herbicide test; type: in vivo, Setaria faberii; conditions: for Foxtail, Giant plant response rating: Preemergence, visual rating on 0 to 100 scale (0 no effect, 100 complete control)
In short: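 Greenhouse pot test with pre- and postemergence application of surfactant-containing solvent formulations. Postemergence plants were 2–10 cm, one- to two-leaf stage. Response scored visually after ~10 days, 0 (no effect) to 100 (complete control).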

[2] = test system: barnyardgrass; test: Test B flooded paddy test; type: in vivo, Echinochloa crus-galli; conditions: Flood, scale of 0 to 100 where 0 is no effect and 100 is complete control
In short: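 Paddy-water application at a 3 cm flood, young plants having two leaves. Water level maintained; greenhouse, 13–15 days; visual 0–100 control rating.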

[3] = test system: corn; test: Test C pre-/postemergence herbicide test; type: in vivo, Zea mays
In short: (§1)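 Greenhouse pots; formulation = non-phytotoxic solvent mix + surfactant. PRE onto seeds in loam:sand; POST at 1–4 leaves (2–18 cm) in peat moss/vermiculite medium. Read-out: visual % control vs untreated, day 13–15.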

[4] = test system: crabgrass, large; test: Test C pre-/postemergence herbicide test; type: in vivo, Digitaria sanguinalis
In short: as §1

[5] = test system: foxtail, giant; test: Test C pre-/postemergence herbicide test; type: in vivo, Setaria faberii
In short: as §1

[6] = test system: pigweed; test: Test C pre-/postemergence herbicide test; type: in vivo, Amaranthus retroflexus
In short: as §1

[7] = test system: velvetleaf; test: Test C pre-/postemergence herbicide test; type: in vivo, Abutilon theophrasti
In short: as §1

[8] = test system: ducksalad; test: Test C flooded paddy test; type: in vivo, Heteranthera limosa; conditions: Flood
In short: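 2-leaf stage; flood 3 cm over soil; compound into paddy water; depth held; greenhouse 13–15 d; visual % control vs untreated (0 = none, 100 = complete); "-" = not tested.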

[9] = Postemergence, 31 g ai/ha, scale 0 (no effect) to 100 (complete control)
[10] = Postemergence, 62 g ai/ha, scale 0 to 100 (0 no effect, 100 complete control)
[11] = Postemergence, 125 g ai/ha, scale 0 to 100 (0 no effect, 100 complete control)
[12] = Postemergence, 250 g ai/ha, scale 0 to 100 (0 no effect, 100 complete control)
[13] = Preemergence, 62 g ai/ha, scale 0 to 100
[14] = Preemergence, 125 g ai/ha, scale 0 to 100 (0 no effect, 100 complete control)
[15] = Preemergence, 31 g ai/ha, scale 0 to 100 (0 no effect, 100 complete control)
[16] = Preemergence, 250 g ai/ha, scale 0 to 100 (0 no effect, 100 complete control)
[17] = 31 g ai/ha, scale of 0 to 100 where 0 is no effect and 100 is complete control, 13 to 15 days
[18] = 62 g ai/ha, scale of 0 to 100 where 0 is no effect and 100 is complete control, 13 to 15 days
[19] = 125 g ai/ha, scale of 0 to 100 where 0 is no effect and 100 is complete control, 13 to 15 days
[20] = Preemergence, 31 g ai/ha, scale 0 to 100, 0 is no effect and 100 is complete control
[21] = Postemergence, 31 g ai/ha, scale 0 to 100 (0 no effect, 100 complete control)
[22] = Postemergence, 62 g ai/ha, scale 0 (no effect) to 100 (complete control)
[23] = Preemergence, 62 g ai/ha, scale 0 to 100 (0 no effect, 100 complete control)

O=C1NCC(c2ccc(Cl)c(F)c2)C1C(=O)Nc1cccc(F)c1F (stereo not shown) [Compound 52]
Plant response rating, Foxtail, Giant ([1]; Postemergence, 125 g ai/ha, 0 to 100 scale, 0 no effect, 100 complete control): 80
Plant response rating, Foxtail, Giant ([1]; Postemergence, 500 g ai/ha, 0 to 100 scale (0 no effect, 100 complete control)): 80
Foxtail, Giant plant response rating ([1]; 125 g ai/ha): 80
Plant response rating, Foxtail, Giant ([1]; preemergence, 500 g ai/ha, 0 to 100 scale): 90
Plant response rating, Barnyardgrass ([2]; 250 g ai/ha): 55
Plant response rating, Corn [3, 9]: 0
Plant response rating, Corn [3, 10]: 0
Plant response rating, Corn [3, 11]: 5
Plant response rating, Corn [3, 12]: 5
Plant response rating, Corn [3, 13]: 10
Plant response rating, Corn [3, 14]: 10
Corn plant response rating [3, 15]: 10
Plant response rating, Corn [3, 16]: 10
Plant response rating, Crabgrass, Large [4, 9]: 50
Plant response rating, Crabgrass, Large [4, 10]: 55
Plant response rating, Crabgrass, Large [4, 11]: 55
Plant response rating, Crabgrass, Large [4, 12]: 75
Plant response rating, Crabgrass, Large [4, 13]: 90
Plant response rating, Crabgrass, Large [4, 14]: 90
Crabgrass, Large plant response rating [4, 15]: 80
Plant response rating, Crabgrass, Large [4, 16]: 95
Plant response rating, Foxtail, Giant [5, 9]: 0
Plant response rating, Foxtail, Giant [5, 10]: 0
Plant response rating, Foxtail, Giant [5, 11]: 0
Plant response rating, Foxtail, Giant [5, 12]: 25
Plant response rating, Foxtail, Giant [5, 13]: 80
Plant response rating, Foxtail, Giant [5, 14]: 80
Foxtail, Giant plant response rating [5, 15]: 55
Plant response rating, Foxtail, Giant [5, 16]: 85
Plant response rating, Pigweed [6, 9]: 25
Plant response rating, Pigweed [6, 10]: 40
Plant response rating, Pigweed [6, 11]: 50
Plant response rating, Pigweed [6, 12]: 60
Plant response rating, Pigweed [6, 13]: 20
Plant response rating, Pigweed [6, 14]: 55
Plant response rating, Velvetleaf [7, 9]: 10
Plant response rating, Velvetleaf [7, 10]: 20
Plant response rating, Velvetleaf [7, 11]: 20
Plant response rating, Velvetleaf [7, 12]: 35
Plant response rating, Velvetleaf [7, 13]: 5
Plant response rating, Velvetleaf [7, 14]: 5
Plant response rating, Ducksalad [8, 17]: 40
Plant response rating, Ducksalad [8, 18]: 40
Plant response rating, Ducksalad [8, 19]: 75
Plant response rating, Ducksalad ([8]; 250 g ai/ha, scale 0 to 100): 95

O=C1NCC(c2ccc(C(F)(F)F)cc2)C1C(=O)Nc1cccc(F)c1F (stereo not shown) [Compound 80, N-(2,3-difluorophenyl)-2-oxo-4-[4-(trifluoromethyl)phenyl]-3-pyrrolidinecarboxamide]
Foxtail, Giant plant response rating ([1]; 125 g ai/ha): 90
pest or weed control at 125 g/ha ([1]; Setaria faberi, post-emergence, 240 h, Postemergence, 125 g ai/ha, 0 to 100 scale, 0 no effect, 100 complete control, read-out: Plant response rating, Foxtail, Giant): 80%
pest or weed control at 500 g/ha ([1]; Setaria faberi, post-emergence, 240 h, Postemergence, 500 g ai/ha, 0 to 100 scale (0 no effect, 100 complete control), read-out: Plant response rating, Foxtail, Giant): 80%
pest or weed control at 500 g/ha ([1]; Setaria faberi, pre-emergence, 240 h, preemergence, 500 g ai/ha, 0 to 100 scale, read-out: Plant response rating, Foxtail, Giant): 90%
Plant response rating, Barnyardgrass ([2]; 250 g ai/ha): 30
Plant response rating, Corn [3, 9]: 0
Plant response rating, Corn [3, 10]: 5
Plant response rating, Corn [3, 11]: 5
Plant response rating, Corn [3, 12]: 10
Corn plant response rating [3, 20]: 0
Plant response rating, Corn [3, 13]: 0
Plant response rating, Corn [3, 14]: 0
Plant response rating (scale of 0 to 100), Corn ([3]; Preemergence, 250 g ai/ha): 65
Plant response rating, Crabgrass, Large [4, 9]: 5
Plant response rating, Crabgrass, Large [4, 10]: 40
Plant response rating, Crabgrass, Large [4, 11]: 65
Plant response rating, Crabgrass, Large [4, 12]: 75
Crabgrass, Large plant response rating [4, 20]: 95
Plant response rating, Crabgrass, Large [4, 13]: 98
Plant response rating, Crabgrass, Large [4, 14]: 98
Plant response rating (scale of 0 to 100), Crabgrass, Large ([4]; Preemergence, 250 g ai/ha): 100
Plant response rating, Foxtail, Giant [5, 9]: 0
Plant response rating, Foxtail, Giant [5, 10]: 0
Plant response rating, Foxtail, Giant [5, 11]: 45
Plant response rating, Foxtail, Giant [5, 12]: 45
Foxtail, Giant plant response rating [5, 20]: 90
Plant response rating, Foxtail, Giant [5, 13]: 95
Plant response rating, Foxtail, Giant [5, 14]: 98
Plant response rating (scale of 0 to 100), Foxtail, Giant ([5]; Preemergence, 250 g ai/ha): 98
Plant response rating, Pigweed [6, 9]: 40
Plant response rating, Pigweed [6, 10]: 40
Plant response rating, Pigweed [6, 11]: 60
Plant response rating, Pigweed [6, 12]: 75
Pigweed plant response rating [6, 20]: 75
Plant response rating, Pigweed [6, 13]: 90
Plant response rating, Pigweed [6, 14]: 90
Plant response rating (scale of 0 to 100), Pigweed ([6]; Preemergence, 250 g ai/ha): 90
Plant response rating, Velvetleaf [7, 9]: 15
Plant response rating, Velvetleaf [7, 10]: 15
Plant response rating, Velvetleaf [7, 12]: 25
Velvetleaf plant response rating [7, 20]: 0
Plant response rating, Velvetleaf [7, 13]: 30
Plant response rating, Velvetleaf [7, 14]: 35
Plant response rating (scale of 0 to 100), Velvetleaf ([7]; Preemergence, 250 g ai/ha): 50
Plant response rating, Ducksalad [8, 17]: 70
Plant response rating, Ducksalad [8, 18]: 70
Plant response rating, Ducksalad [8, 19]: 100
Plant response rating, Ducksalad ([8]; 250 g ai/ha, scale 0 to 100): 100

O=C1NCC(c2cccc(OC(F)F)c2)C1C(=O)Nc1cccc(F)c1F (stereo not shown) [Compound 224]
Plant response rating, Foxtail, Giant ([1]; 125 g ai/ha, visual rating, 0 to 100 scale, 0 no effect, 100 complete control, approximately 10 days, preemergence): 90
Plant response rating, Foxtail, Giant ([1]; Postemergence, 125 g ai/ha, 0 to 100 scale, 0 is no effect, 100 is complete control): 80
Foxtail, Giant plant response rating (0 to 100 scale, 0 is no effect, 100 is complete control) ([1]; Postemergence, 500 g ai/ha): 80
Plant response rating, Foxtail, Giant ([1]; preemergence, 500 g ai/ha, 0 to 100 scale, 0 is no effect and 100 is complete control): 90
Plant response rating, Barnyardgrass ([2]; 500 g ai/ha): 70
Plant response rating, Corn [3, 21]: 0
Plant response rating, Corn [3, 22]: 0
Plant response rating, Corn [3, 11]: 10
Plant response rating, Corn [3, 12]: 10
Corn plant response rating [3, 20]: 10
Corn plant response rating [3, 23]: 0
Plant response rating, Corn [3, 14]: 85
Plant response rating (scale of 0 to 100), Corn ([3]; Preemergence, 250 g ai/ha): 85
Plant response rating, Crabgrass, Large [4, 21]: 0
Plant response rating, Crabgrass, Large [4, 22]: 35
Plant response rating, Crabgrass, Large [4, 11]: 55
Plant response rating, Crabgrass, Large [4, 12]: 75
Crabgrass, Large plant response rating [4, 20]: 90
Crabgrass, Large plant response rating [4, 23]: 90
Plant response rating, Crabgrass, Large [4, 14]: 90
Plant response rating (scale of 0 to 100), Crabgrass, Large ([4]; Preemergence, 250 g ai/ha): 100
Plant response rating, Foxtail, Giant [5, 21]: 0
Plant response rating, Foxtail, Giant [5, 22]: 0
Plant response rating, Foxtail, Giant [5, 11]: 60
Plant response rating, Foxtail, Giant [5, 12]: 35
Foxtail, Giant plant response rating [5, 20]: 80
Foxtail, Giant plant response rating [5, 23]: 90
Plant response rating, Foxtail, Giant [5, 14]: 95
Plant response rating (scale of 0 to 100), Foxtail, Giant ([5]; Preemergence, 250 g ai/ha): 98
Plant response rating, Pigweed [6, 21]: 40
Plant response rating, Pigweed [6, 22]: 55
Plant response rating, Pigweed [6, 11]: 60
Plant response rating, Pigweed [6, 12]: 65
Pigweed plant response rating [6, 20]: 0
Pigweed plant response rating [6, 23]: 25
Plant response rating, Pigweed [6, 14]: 60
Plant response rating (scale of 0 to 100), Pigweed ([6]; Preemergence, 250 g ai/ha): 85
Plant response rating, Velvetleaf [7, 21]: 0
Plant response rating, Velvetleaf [7, 22]: 0
Plant response rating, Velvetleaf [7, 11]: 25
Plant response rating, Velvetleaf [7, 12]: 35
Velvetleaf plant response rating [7, 20]: 0
Velvetleaf plant response rating [7, 23]: 5
Plant response rating, Velvetleaf [7, 14]: 45
Plant response rating (scale of 0 to 100), Velvetleaf ([7]; Preemergence, 250 g ai/ha): 40
Plant response rating, Ducksalad [8, 17]: 0
Plant response rating, Ducksalad [8, 18]: 40
Plant response rating, Ducksalad [8, 19]: 80
Plant response rating, Ducksalad ([8]; 250 g ai/ha, scale of 0 to 100 where 0 is no effect and 100 is complete control, 13 to 15 days): 100
